{
  "source": "patent US20220265792A1",
  "about": "“METHODS FOR TREATING SOLID TUMORS” (Breakbio Corp., priority 2019, published 2022)",
  "origin": "cited, not measured here",
  "key": {"Treg cells": {"test_system": "Treg cells", "details": "50 mg bid seven days, seven days off, another seven days of 50 mg bid"}, "Renal Cell Carcinoma": {"test_system": "Renal Cell Carcinoma", "details": "human, in vivo"}, "mCRC patients": {"test_system": "mCRC patients", "details": "20 μg/Kg/day for 14 days, 1 to 3 cycles"}},
  "data": [
    {"molecule": "O=P1(N(CCCl)CCCl)NCCCO1", "note": "(racemic) [cyclophosphamide, (RS)—N,N-bis(2-chloroethyl)-1,3,2-oxazaphosphinan-2-amine 2-oxide]", "values": [
      {"measurement": "effect on Treg cells", "setting": "Treg cells", "result": "significantly depleted Treg cells"}
    ]},
    {"molecule": "COc1cc2nccc(Oc3ccc(NC(=O)NC4CC4)c(Cl)c3)c2cc1C(N)=O", "note": "[Lenvatinib]", "values": [
      {"measurement": "clinical effect as monotherapy", "setting": "colorectal cancer", "result": "modest clinical effect"}
    ]},
    {"molecule": "CNC(=O)c1cc(Oc2ccc(NC(=O)Nc3ccc(Cl)c(C(F)(F)F)c3)c(F)c2)ccn1", "note": "[regorafenib]", "values": [
      {"measurement": "clinical activity as single agent", "setting": "lung, pancreatic", "result": "modest clinical activity"}
    ]},
    {"molecule": "Bevacizumab: monoclonal antibody binding circulating VEGF-A", "values": [
      {"measurement": "intra-tumoral T-cell infiltration", "setting": "Renal Cell Carcinoma", "result": "augmented intra-tumoral T-cell infiltration"}
    ]},
    {"molecule": "FLT3L: FMS-like tyrosine kinase 3 ligand, expands and mobilizes antigen presenting cells (protein, UniProt P49771 27-235, looked up) Fms-related tyrosine kinase 3 …: TQDCSFQHSPISSDFAVKIRELSDYLLQDYPVTVASNLQDEELCGGLWRLVLAQRWMERLKTVAGSKMQGLLERVNTEIHFVTKCAFQPPPSCLRFVQTNISRLLQETSEQLVALKPWITRQNFSRCLELQCQPDSSTLPPPWSPRPLEATAPTAPQPPLLLLLLLPVGLLLLAAAWCLHWQRTRRRTPRPGEQVPPVPSPQDLLLVEH", "values": [
      {"measurement": "number of APCs observed on the periphery of tumors", "setting": "mCRC patients", "result": "significantly increased"},
      {"measurement": "percentage of APCs in PBMCs", "setting": "mCRC patients; from 2.4%", "result": 8.8, "unit": "%"},
      {"measurement": "number of leukocytes in peripheral blood", "setting": "mCRC patients; from 5,900/mm^3", "result": "11,200 /mm^3"}
    ]}
  ]
}
